In patent US8822486B2, “Spiropiperidine compounds” (Eli Lilly and Company, priority 2009, dated 2014):

Experiments:
[1] = test system: primary rodent pancreatic islets of Langerhans; experiment: GDIS assay in primary rodent pancreatic islets; format: cell-based; details: male SD rat islets; different concentrations; compared to 11.2 mM glucose alone; 90 min
From the text: Because activation of GPR40 is known to result in insulin secretion which is dependent on high glucose concentrations, two separate assay systems (insulinoma cell line and primary rodent islets) are developed to further characterize compounds that are known to increase intracellular calcium in the GPR40 primary assay discussed above.
GDIS assays using primary rodent pancreatic islets of Langerhans are also used to characterize exemplified compounds. Pancreatic islets are isolated from male SD (Sprague Dawley) rats by collagenase digestion and Histopaque density gradient separation. The islets are cultured overnight in RPMI-1640 medium with GlutaMAXn (stabilized, dipeptide form of L-glutamine (Invitrogen catalog #61870-010)) to facilitate recovery from the isolation process. Insulin secretion is determined by a 90 minute incubation in EBSS (Earle's Balances Salt Solution) buffer in a 48-well plate. Briefly, islets are first preincubated in EBSS with 2.8 mM glucose for 30 min and are then transferred to a 48-well plate (four islets/well) containing 150 μl 2.8 mM glucose and incubated with 150 μl of EBSS with 2.8 or 11.2 mM glucose in the presence or absence of test compounds for 90 minutes. The buffer is removed from the wells at the end of the incubation and assayed for insulin levels using the Rat Insulin ELISA kit (Mercodia). […]

[2] = biological target: T1, PPARα (Homo sapiens, UniProt Q07869); experiment: PPARα binding assay (SPA); details: concentrations up to 10 μM
T1 construct: made in house; host or cells: HEK293 (cell lysates)
T1 sequence (Q07869 1-468): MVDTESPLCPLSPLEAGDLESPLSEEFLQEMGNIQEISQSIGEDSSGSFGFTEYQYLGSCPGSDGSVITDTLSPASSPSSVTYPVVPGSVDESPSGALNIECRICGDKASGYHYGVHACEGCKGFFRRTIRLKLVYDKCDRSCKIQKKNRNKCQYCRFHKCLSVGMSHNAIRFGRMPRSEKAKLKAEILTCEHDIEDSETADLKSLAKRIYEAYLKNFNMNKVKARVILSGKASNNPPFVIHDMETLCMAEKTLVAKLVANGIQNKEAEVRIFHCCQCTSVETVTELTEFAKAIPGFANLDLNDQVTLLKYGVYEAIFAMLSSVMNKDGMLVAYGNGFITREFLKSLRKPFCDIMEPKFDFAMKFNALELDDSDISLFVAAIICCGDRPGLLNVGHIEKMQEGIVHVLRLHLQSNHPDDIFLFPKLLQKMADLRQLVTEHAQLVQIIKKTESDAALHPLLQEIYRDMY
T1 sequence (P19793 1-462 partner): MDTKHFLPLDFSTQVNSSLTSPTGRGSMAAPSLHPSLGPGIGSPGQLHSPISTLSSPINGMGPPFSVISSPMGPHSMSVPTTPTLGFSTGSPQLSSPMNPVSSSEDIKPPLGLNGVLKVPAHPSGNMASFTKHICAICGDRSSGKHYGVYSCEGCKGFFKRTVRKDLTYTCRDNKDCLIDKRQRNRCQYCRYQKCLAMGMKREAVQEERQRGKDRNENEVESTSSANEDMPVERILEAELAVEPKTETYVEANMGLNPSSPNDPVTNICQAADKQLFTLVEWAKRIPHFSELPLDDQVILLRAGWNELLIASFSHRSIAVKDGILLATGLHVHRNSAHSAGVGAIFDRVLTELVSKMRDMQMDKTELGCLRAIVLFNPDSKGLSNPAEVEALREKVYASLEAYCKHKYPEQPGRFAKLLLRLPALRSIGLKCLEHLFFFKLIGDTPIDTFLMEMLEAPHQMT
Protocol: Because GPR40 is known to be activated by ligands to PPARγ exemplified compounds are examined in PPARα, PPARδ, and PPARγ binding and functional assays to determine the selectivity of exemplified compounds for GPR40. Compounds exemplified herein are tested essentially as described below for PPAR binding and generally have binding values greater than 1000 nM with 10 μM concentrations of test compound and are thus considered negative for PPAR activity.
Binding affinities of compounds for the PPAR α, δ, and γ receptors are assessed using Scintillation Proximity Assay (SPA) technology. Biotinylated oligonucleotide Direct Repeat 2 (DR2) is used for binding the receptors to Yttrium silicate streptavidin-coated SPA beads. […] Non-specific binding is determined in the presence of 10,000 nM of the unlabeled PPAR α/δ dual agonist reference compound for the alpha and delta receptor assays and the PPARγ agonist reference compound for the gamma receptor assay. The binding reaction (100 μl per well in a 96 well [Costar 3632] plate) is incubated for 10 h and counted disintegration per minutes (dpm) on a Wallac Microbeta. Receptor binding affinity (IC50) for the compounds is determined by fitting an 11 point concentration-response curve with a 4-paramater logistic equation. K, is determined from the IC50 using the Cheng-Prussoff equation and Kd determined by saturation binding. […]

CC#C[C@@H](CC(=O)O)c1ccc(OCc2ccc(CN3CCC4(C=Cc5ccccc54)CC3)s2)cc1 [Example 1, (3S)-3-[4-[[5-(Spiro[indene-1,4′-piperidine]-1′-ylmethyl)-2-thienyl]methoxy]phenyl]hex-4-ynoic acid]
increase in insulin [1]: 2- to 4 fold
PPARα binding [2]: no binding is detected
